Results on 20 compounds are retold here after patent US5831115A, “Inhibitors of squalene synthase and protein farnesyltransferase” (Abbott Laboratories, priority 1996, dated 1998).

Common to all, as to format: biochemical
In experiment [1] the target is T1, Rat liver microsomal squalene synthase (Rattus norvegicus, UniProt Q02769).
T1 construct: Rat liver microsomes, the source of enzyme, were prepared; from tissue; host or cells: rat liver microsomes
T1 sequence (Q02769 1-416): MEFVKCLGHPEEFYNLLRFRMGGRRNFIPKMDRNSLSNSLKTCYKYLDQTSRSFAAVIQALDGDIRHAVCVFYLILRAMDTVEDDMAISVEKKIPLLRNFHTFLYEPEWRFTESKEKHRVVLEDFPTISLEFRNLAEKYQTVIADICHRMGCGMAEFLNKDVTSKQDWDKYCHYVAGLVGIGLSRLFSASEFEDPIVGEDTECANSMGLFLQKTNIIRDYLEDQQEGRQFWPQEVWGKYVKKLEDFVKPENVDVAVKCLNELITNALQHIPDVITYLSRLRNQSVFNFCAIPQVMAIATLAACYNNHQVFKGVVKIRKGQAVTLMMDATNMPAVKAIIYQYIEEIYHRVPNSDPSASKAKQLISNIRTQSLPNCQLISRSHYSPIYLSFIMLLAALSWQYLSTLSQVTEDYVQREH
As to the kind of experiment: In vitro Inhibition of Squalene Synthase (rat liver microsomal, radioactive farnesyl diphosphate substrate). Conditions: rat liver microsomes. The method, then:
In vitro inhibition of squalene synthase may be measured by the following procedure.
Rat liver microsomal squalene synthase activity was measured using radioactive farnesyl diphosphate as a substrate and quantitating squalene synthesis by counting the radioactive squalene formed.
Rat liver microsomes, the source of enzyme, were prepared according to the method of Gillies, P. J., et al., Exp. Molc. Pathol. 44: 329-339 (1986), a modification of the procedure of Erickson, S. K., and Cooper, A. D., Metabolism, 29: 991-996 (1980). Approximately 30 μg of microsomal protein was incubated for 10 minutes at 37° C. with […] of ^3 H-farnesyl diphosphate, 49 mCi/mmol, and test compound in the presence of squalene (2 μL), Mg++, KF, reduced B-nicotinamide adenine dinucleotide phosphate, dithiothreitol, and K2 PO4, pH 7.35, in a total volume of 200 μL. Oxygen was excluded from the closed incubation tube by degassing with nitrogen. The reaction was terminated by the addition of ethanolic KOH and after degassing with N2, the microsomal membranes were solubilized by heating at 60° C. for 30 minutes. The squalene was extracted into hexane, and the squalene was separated from all other radioactive molcules by passage over an activated alumina column. The solution was collected in scintillation vials, evaporated to dryness, liquid scintillation fluid was added, and the radioactivity was determined in a liquid scintillation counter. The percent inhibition at a dose of 1 μM compared to controls with no test compound was determined.
Background: Liver microsomes are vesicles of endoplasmic reticulum, rich in cytochrome P450 enzymes.

Experiment [2] deals with T2, Rat brain protein farnesyltransferase (Rattus norvegicus, UniProt Q02293+Q04631).
T2 construct: Rat brain protein farnesyltransferase activity was measured; from tissue; host or cells: rat brain; partially purified by steps one through three of Reiss et al., Cell 62:81-88 (1990)
As to the kind of experiment: In vitro Inhibition of Protein Farnesyltransferase (scintillation proximity assay, biotin-K Ras B fragment). To be noted: rat brain enzyme. As for the experimental part:
In vitro inhibition of protein farnesyltransferase may be measured by the following procedure. (Procedures for determination of the inhibition of farnesylation of the oncogene protein Ras are described by Goldstein, et al., J. Biol. Chem., 266:15575-15578 (1991) and by Singh in U.S. Pat. No. 5,245,061 both of which are incorporated herein by reference.)
Rat brain protein farnesyltransferase activity was measured using an Amersham Life Science commercial scintillation proximity assay kit and substituting a biotin-K Ras B fragment (biotin-Lys-Lys-Ser-Lys-Thr-Lys-Cys-Val-lle-Met-CO2 H), 0.1 μM final concentration, for the biotin-lamin substrate provided by Amersham. The enzyme was purified according to Reiss, Y., et al., Cell, 62:81-88 (1990), utilizing steps one through three. The specific activity of the enzyme was approximately 10 nmol substrate farnesylated/mg enzyme/hour. […]

Experiment [3] concerns the target T1, Rat liver microsomal squalene synthase. As to the kind of experiment: In vitro Inhibition of Squalene Synthase (rat liver microsomal, radioactive farnesyl diphosphate substrate). Conditions: 0.15 μM (footnote *); rat liver microsomes.

On to `O=C(O)[C@H]1[C@H](C(=O)O)[C@H](C(=O)O)[C@H]1C(=O)N(Cc1ccc(Oc2ccccc2)cc1)Cc1ccc(Cl)c(Cl)c1` (relative stereo) [Example 46], for which the inhibition at 1 µM in experiment [1] was determined as 53%. On the same count and under the same terms, then `O=C(O)[C@H]1[C@H](C(=O)O)[C@H](C(=O)O)[C@H]1C(=O)N(CCCCCCCCCCc1ccccc1)Cc1ccccc1` (relative stereo) [Example 35, (1β,2β,3α,4α)-4-[N-Benzyl-N-(10-phenyldecyl)aminocarbonyl]cyclobutane-1,2,3-tricarboxylic acid], with 47%.

As to `O=C(OCc1ccccc1)[C@@H]1[C@H](C(=O)O)[C@@H](C(=O)OCc2ccccc2)[C@H]1C(=O)N(Cc1ccc(Oc2ccccc2)cc1)Cc1cccs1` (relative stereo) [Example 5, (1α,2β,3β,4α)-1-[N-(Thien-2-ylmethyl)-N-(4-phenoxybenzyl)aminocarbonyl]-2,4-di(benzyloxycarbonyl)cyclobutane-3-carboxylic acid], 1 µM produced 21% inhibition in experiment [2]. The same measure, in the same setting: the same measure for `O=C(O)[C@@H]1[C@H](C(=O)O)[C@@H](C(=O)O)[C@H]1C(=O)N(Cc1ccccc1)Cc1ccc(Oc2ccccc2)cc1` (relative stereo) [Example 4, (1α,2β,3β,4α)-1-[N-Benzyl-N-(4-phenoxybenzyl)aminocarbonyl]cyclobutane-2,3,4-tricarboxylic acid]: 99%. For `CC(C=CCCCN(Cc1ccccc1)C(=O)C1C(C(=O)O)C(C(=O)O)C1C(=O)O)CCCc1ccccc1` [Example 45, (1α,2α,3β,4β)-4-{N-Benzyl-N-[(R)-6-methyl-9-phenyl-(E)-4-nonenyl]aminocarbonyl}cyclobutane-1,2,3-tricarboxylic acid], the inhibition at 1 µM in experiment [1] came to 67%. Compound `COC(=O)[C@H]1[C@@H](C(=O)O)[C@H](C(=O)N(Cc2ccccc2)Cc2ccc(Oc3ccccc3)cc2)[C@@H]1C(=O)O` (relative stereo) [Example 8, (1α,2β,3β,4α)-1-[N-Benzyl-N-(4-phenoxybenzyl)aminocarbonyl]-3-(methyloxycarbonyl)cyclobutane-2,4-dicarboxylic acid] showed an inhibition at 1 µM in experiment [2] of 79%.

For the compound `COC(=O)[C@H]1[C@@H](C(=O)O)[C@H](C(=O)O)[C@@H]1C(=O)N[C@@H](C)[C@@H](Cc1ccc(Cl)c(Cl)c1)OC(=O)c1ccc2ccccc2c1` [Example 24], the inhibition at 1 µM in experiment [1] was determined as 27%. Take `CCCN(CCCC(OC(=O)c1ccc2ccccc2c1)C(C)Cc1ccccc1)C(=O)C1C(C(=O)O)C(C(=O)O)C1C(=O)O` (stereo not drawn) [Example 43, (1α,2β,3β,4α)-4-{N-Propyl-N-[(4S*,5S*)-(5-methyl-4-napthoyloxy)-6-phenylhexyl]aminocarbonyl}cyclobutane-1,2,3-tricarboxylic acid]: in experiment [1], the inhibition at 1 µM is 63%. In the case of `C[C@H](NC(=O)C1CCC1C(=O)O)[C@H](Cc1ccc(Cl)cc1)c1ccc(-c2ccccc2)cc1` (stereo partly drawn) [Example 37, 2-[N-{(2S,3R)-4-(4-Chlorophenyl)-3-(4-biphenylyl)-2-butyl}aminocarbonyl]cyclobutane-1-carboxylic acid], the inhibition at 1 µM in experiment [1] turned out to be 90%. With `CC(NC(=O)C1C(C(=O)O)C(C(=O)O)C1C(=O)O)C(Cc1ccc(Cl)cc1)c1ccc(-c2ccccc2)cc1` [Example 29, (1α,2α,3α,4α)-4-[N-{(2S,3R)-4-(4-chlorophenyl)-3-(4-biphenylyl)-2-butyl}aminocarbonyl]cyclobutane-1,2,3-tricarboxylic acid], the inhibition at 0.15 µM in experiment [3] stood at 81%.

In the case of `C[C@H](NC(=O)[C@H]1[C@@H](C(=O)O)[C@H](C(=O)O)[C@@H]1C(=O)O)[C@@H](Cc1ccc(Cl)c(Cl)c1)OC(=O)c1ccc2ccccc2c1` [Example 26, (1R,2R,3R,4S)-4-[N-{(2S,3R)-4-(3,4-Dichlorophenyl)-3-(2-naphthoyloxy)-2-butyl}aminocarbonyl]cyclobutane-1,2,3-tricarboxylic acid], the inhibition at 1 µM in experiment [1] was determined as 52%. The compound `O=C(O)[C@@H]1[C@H](C(=O)O)[C@@H](C(=O)O)[C@H]1C(=O)N(Cc1ccc(Oc2ccccc2)cc1)Cc1cccs1` (relative stereo) [Example 6, (1α,2β,3β,4α)-1-[N-(Thien-2-ylmethyl)-N-(4-phenoxybenzyl)aminocarbonyl]cyclobutane-2,3,4-tricarboxylic acid] displayed an inhibition at 1 µM in experiment [2] of 89%. In the case of `COC(=O)[C@@H]1[C@H](C(=O)O)[C@@H](C(=O)O)[C@H]1C(=O)N[C@@H](C)[C@@H](Cc1ccc(Cl)c(Cl)c1)OC(=O)c1ccc2ccccc2c1` [Example 23, (1S,2R,3S,4R)-3-Methoxycarbonyl-4-[N-{(2S,3R)-4-(3,4-dichlorophenyl)-3-(2-naphthoyloxy)-2-butyl}aminocarbonyl]cyclobutane-1,2-dicarboxylic acid], in experiment [1], the inhibition at 1 µM amounted to 98%. `CC(Cc1ccccc1)C(O)CCCN(Cc1ccccc1)C(=O)C1C(C(=O)O)C(C(=O)O)C1C(=O)O` (stereo not drawn) [Example 1, (1α,2β,3β,4α)-1-[N-Benzyl-N-{(4S*,5S*)-(4-hydroxy-5-methyl)-6-phenylhexyl}aminocarbonyl]cyclobutane-2,3,4-tricarboxylic acid] yielded an inhibition at 1 µM in experiment [2] of 92%. Turning to `CCCN(CCCC=CC(C)CCCc1ccccc1)C(=O)C1C(C(=O)O)C(C(=O)O)C1C(=O)O` [Example 44, (1α,2α,3β,4β)-4-{N-Propyl-N-[(R)-6-methyl-9-phenyl-(E)-4-nonenyl]aminocarbonyl}cyclobutane-1,2,3-tricarboxylic acid], the inhibition at 1 µM in experiment [1] came to 25%. Consider `C[C@H](NC(=O)C1CC(CO)C1C(=O)[O-])[C@H](Cc1ccc(Cl)cc1)c1ccc(-c2ccccc2)cc1.[Na+]` (mixture of isomers) [Example 41, (±)-(1α,2β,4α)-2-[N-{(2S,3R)-4-(4-Chlorophenyl)-3-(4-biphenylyl)-2-butyl}aminocarbonyl]-4-hydroxymethylcyclobutane-1-carboxylic acid sodium salt], for which the “% Inhibition at 1 μM” value in experiment [1] was 80%.

With `C[C@H](NC(=O)[C@H]1[C@H](C(=O)O)[C@H](C(=O)O)[C@H]1C(=O)O)[C@@H](Cc1ccc(Cl)c(Cl)c1)OC(=O)c1ccc2ccccc2c1` [Example 25, (1S,2S,3S,4R)-4-[N-{(2S,3R)-4-(3,4-Dichlorophenyl)-3-(2-naphthoyloxy)-2-butyl}aminocarbonyl]cyclobutane-1,2,3-tricarboxylic acid], the inhibition at 1 µM in experiment [1] is 35%. `O=C(OCc1ccccc1)[C@@H]1[C@H](C(=O)O)[C@@H](C(=O)OCc2ccccc2)[C@H]1C(=O)N(Cc1ccccc1)Cc1ccc(Oc2ccccc2)cc1` (relative stereo) [Example 3, (1α,2β,3β,4α)-1-[N-Benzyl-N-(4-phenoxybenzyl)aminocarbonyl]-2,4-di(benzyloxycarbonyl)cyclobutane-3-carboxylic acid] displayed an inhibition at 1 µM in experiment [2] of 45%. `COC(=O)[C@@H]1[C@@H](C(=O)O)[C@@H](C(=O)O)[C@@H]1C(=O)N[C@@H](C)[C@@H](Cc1ccc(Cl)c(Cl)c1)OC(=O)c1ccc2ccccc2c1` [Example 27, (1S,2S,3S,4S)-3-Methoxycarbonyl-4-[N-{(2S,3R)-4-(3,4-dichlorophenyl)-3-(2-naphthoyloxy)-2-butyl}aminocarbonyl]cyclobutane-1,2-dicarboxylic acid]: in experiment [1], the inhibition at 1 µM was determined as 98%. Same read-out and setting: the same measure for `CC(NC(=O)[C@H]1C[C@H](C(=O)O)[C@H]1C(=O)O)C(Cc1ccc(Cl)cc1)c1ccc(-c2ccccc2)cc1` (relative stereo) [Example 34, (1β,2α,3α)-3-[N-{(2S,3R)-4-(4-chlorophenyl)-3-(4-biphenylyl)-2-butyl}aminocarbonyl]cyclobutane-1,2-dicarboxylic acid]: 94%.

As a reminder, the inhibition is the relative decrease from the control value, in per cent. One may read the % Inhibition as the relative decrease from the control value, in per cent.
